Data as given in ChEMBL document CHEMBL1146883, “5'-O-tritylinosine and analogues as allosteric inhibitors of human thymidine phosphorylase” (J Med Chem, 2006).

Target: T1, Thymidine phosphorylase (Homo sapiens, UniProt P19971)
T1 sequence (P19971 whole entry): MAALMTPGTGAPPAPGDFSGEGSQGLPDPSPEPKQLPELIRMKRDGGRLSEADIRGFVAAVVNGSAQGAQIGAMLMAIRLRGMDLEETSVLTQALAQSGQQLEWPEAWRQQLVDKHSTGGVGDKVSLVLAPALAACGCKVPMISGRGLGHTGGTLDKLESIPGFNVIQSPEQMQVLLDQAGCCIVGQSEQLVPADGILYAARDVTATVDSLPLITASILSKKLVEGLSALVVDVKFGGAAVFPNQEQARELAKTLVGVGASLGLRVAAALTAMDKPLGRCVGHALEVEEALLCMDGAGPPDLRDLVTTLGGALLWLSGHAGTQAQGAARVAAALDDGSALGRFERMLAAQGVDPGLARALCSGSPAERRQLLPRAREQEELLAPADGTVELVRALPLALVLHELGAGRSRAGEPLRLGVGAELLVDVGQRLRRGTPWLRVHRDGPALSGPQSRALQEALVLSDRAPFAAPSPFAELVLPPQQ
Description: Inhibition of human TPase in presence of 100 uM thymidine

Row | Structure (SMILES) | IC50 [µM]
1 | COCCOCn1cnc2c(ncn2[C@@H]2O[C@H](COC(c3ccccc3)(c3ccccc3)c3ccccc3)[C@@H](OC(C)=O)[C@H]2OC(C)=O)c1=O | > 20
2 | COCCOCNC(=O)c1ncn([C@@H]2O[C@H](COC(c3ccccc3)(c3ccccc3)c3ccccc3)[C@@H](O)[C@H]2O)c1N | > 75
3 | CNC(=O)c1ncn([C@@H]2O[C@H](COC(c3ccccc3)(c3ccccc3)c3ccccc3)[C@@H](O)[C@H]2O)c1N | 137
4 | COCCOCn1cnc2c(ncn2[C@@H]2O[C@H](COC(c3ccccc3)(c3ccccc3)c3ccccc3)[C@@H](O)[C@H]2O)c1=O | > 100
5 | O=c1c2ncn([C@@H]3O[C@H](COCc4ccccc4)[C@@H](O)[C@H]3O)c2ncn1Cc1ccccc1 | > 200
6 | NC(=O)c1ncn([C@@H]2O[C@H](COC(c3ccccc3)(c3ccccc3)c3ccccc3)[C@@H](O)[C@H]2O)c1N | ≥ 40
7 | OC[C@@H](COC(c1ccccc1)(c1ccccc1)c1ccccc1)O[C@H](CO)n1cnc2c(O)ncnc21 | > 200
